# pIC50: −log10 of the molar value.
# Target: CGRP receptor (Homo sapiens, UniProt O60894+Q16602)
# Assay: CGRP radioligand binding assay ([125I]-CGRP displacement, SK-N-MC homogenate)
# Set-up: endogenous in cells; host or cells: SK-N-MC cells (homogenate/membrane pellet)
# Details: displacement of [125I]-CGRP, room temperature 2 h
# In short: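 SK-N-MC cell homogenate (5 μg/well) was incubated 2 h at room temperature with [125I]-CGRP (diluted to 60 pM before addition) in 50 mM Tris-Cl pH 7.5, 5 mM MgCl2, 0.005% Triton X-100 plus protease inhibitors. Bound radioactivity was collected by filtration; 1 μM beta-CGRP defined non-specific binding. IC50 is 50% radioligand displacement.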
# Sequence of CGRP receptor (Q16602 23-461): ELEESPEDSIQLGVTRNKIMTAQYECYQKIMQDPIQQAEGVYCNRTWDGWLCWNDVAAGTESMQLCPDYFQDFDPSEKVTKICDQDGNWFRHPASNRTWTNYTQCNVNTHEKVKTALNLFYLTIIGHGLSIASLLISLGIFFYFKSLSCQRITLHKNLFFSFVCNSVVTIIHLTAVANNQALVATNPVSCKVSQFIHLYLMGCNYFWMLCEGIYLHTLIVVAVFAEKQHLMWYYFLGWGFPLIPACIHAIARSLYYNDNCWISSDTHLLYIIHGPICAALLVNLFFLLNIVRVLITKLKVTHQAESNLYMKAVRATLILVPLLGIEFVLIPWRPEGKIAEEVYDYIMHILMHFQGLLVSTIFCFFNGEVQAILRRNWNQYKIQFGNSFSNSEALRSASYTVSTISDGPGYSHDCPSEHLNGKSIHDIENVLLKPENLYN
# Sequence of CGRP receptor (O60894 27-148): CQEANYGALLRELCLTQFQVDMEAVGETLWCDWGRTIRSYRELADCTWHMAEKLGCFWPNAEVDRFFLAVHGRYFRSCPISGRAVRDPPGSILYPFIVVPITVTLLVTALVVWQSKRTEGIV
row,pIC50,Compound
1,8.00 to 10.00,"CC(C)(C)CN1Cc2c(cc(Cl)c3[nH]ncc23)C[C@@H](CC(=O)N2CCC(c3cc4cccnc4[nH]c3=O)CC2)C1=O [Example 79, 1-[[(7S)-4-chloro-9-(2,2-dimethylpropyl)-3,6,7,8,9,10-hexahydro-8-oxoazepino[3,4-e]indazol-7-yl]acetyl]-4-(1,2-dihydro-2-oxo-1,8-naphthyridin-3-yl)-piperidine]"
2,7.00 to 8.00,"CC(C)(C)CN1Cc2c(ccc3[nH]ncc23)CC(NC(=O)N2CCC3(CC2)NC(=O)Nc2ccccc23)C1=O (centres unmarked) [Example 23, N-[9-(2,2-dimethylpropyl)-8-oxo-3,6,7,8,9,10-hexahydroazepino[3,4-e]indazol-7-yl]-2′-oxo-2′,3′dihydro-1H, 1′H-spiro[piperidine-4,4′-quinazoline]-1-carboxamide]"
3,6.00 to 7.00,"CC(C)(C)CN1Cc2c(ccc3[nH]ncc23)C[C@@H](CC(=O)N2CCC3(CC2)NC(=O)Nc2ccccc23)C1=O [Example 71, 1-[[7-(S)-9-(2,2-Dimethylpropyl)-3,6,7,8,9,10-hexahydro-8-oxoazepino[3,4-e]indazol-7-yl]acetyl]-spiro[piperidine-4,4′(1′H)-quinazolin]-2′(3′H)-one]"
4,< 6.00,"CN1Cc2c(cc(Cl)c(O)c2Cl)CC(NC(=O)N2CCC(N3Cc4ccccc4NC3=O)CC2)C1=O (centres unmarked) [Example 33, 4-(2-Oxo-1,4-dihydro-2H-quinazolin-3-yl)-piperidine-1-carboxylic acid (7,9-dichloro-8-hydroxy-2-methyl-3-oxo-2,3,4,5-tetrahydro-1H-benzo[c]azepin-4-yl)-amide]"
5,6.00 to 7.00,"O=C(C[C@@H]1Cc2cc(Cl)c3[nH]ncc3c2CN(Cc2ccncc2)C1=O)N1CCC(c2ccc(-c3ccccc3)c[n+]2[O-])CC1 [Example 83, (S)-1-[[(7S)-4-chloro-3,6,7,8,9,10-hexahydro-8-oxo-9-(4-pyridinylmethyl)azepino[3,4-e]indazol-7-yl]acetyl]-4-(1-oxido-5-phenyl-2-pyridinyl)-piperidine]"
6,8.00 to 10.00,"O=C(C[C@@H]1Cc2cc(Cl)c3[nH]ncc3c2CN(CC(F)(F)F)C1=O)N1CCC(c2cc3cccc(F)c3[nH]c2=O)CC1 [Example 91, (S)-4-chloro-7-(2-(4-(8-fluoro-2-oxo-1,2-dihydroquinolin-3-yl)piperidin-1-yl)-2-oxoethyl)-9-(2,2,2-trifluoroethyl)-6,7,9,10-tetrahydroazepino[3,4-e]indazol-8(3H)-one]"
7,7.00 to 8.00,"Cc1cc2c(c3cn[nH]c13)CN(CC(C)(C)C)C(=O)[C@H](CC(=O)N1CCC(c3cc4cccc(F)c4[nH]c3=O)CC1)C2 [Example 101, (S)-7-(2-(4-(8-fluoro-2-oxo-1,2-dihydroquinolin-3-yl)piperidin-1-yl)-2-oxoethyl)-4-methyl-9-neopentyl-6,7,9,10-tetrahydroazepino[3,4-e]indazol-8(3H)-one]"
8,6.00 to 7.00,"CC(C)CN1Cc2c(ccc3[nH]ncc23)CC(NC(=O)N2CCC3(CC2)NC(=O)Nc2ccccc23)C1=O (centres unmarked) [Example 25, N-[9-(2-methylpropyl)-8-oxo-3,6,7,8,9,10-hexahydroazepino[3,4-e]indazol-7-yl]-2′-oxo-2′,3′-dihydro-1H, 1′H-spiro[piperidine-4,4′-quinazoline]-1-carboxamide]"

# Reference: patent US7384931B2, “Constrained compounds as CGRP-receptor antagonists” (Bristol-Myers Squibb Company, priority 2004, dated 2008)
